# Measurements taken from article PMC11714206, “Massively Parallel Screening of Toll/Interleukin‐1 Receptor (TIR)‐Derived Peptides Reveals Multiple Toll‐Like Receptors (TLRs)‐Targeting Immunomodulatory Peptides” (Advanced Science, 2024).
# Molecular target: T1, MAL^TIR (Homo sapiens, UniProt P58753)
# T1 construct: MAL (residues 79–221); 6xHis; made in house; host or cells: E. coli BL21 (DE3)
# Assay: T‐Surf phage library (P8 and P3) selection against MAL^TIR, four rounds, NGS read counts
# Type: binding
# Details: for P3_MAL Rank (after) / P3_MAL Rank (before): P3 library; for P8_MAL Rank (after) / P8_MAL Rank (before): P8 library; for Population: 4th round of selection against MAL TIR, share of NGS reads
# Protocol: T‐Surf libraries were screened against the immobilized TIR domains of two major human TLR adaptor proteins, MAL^TIR and MyD88^TIR, allowing cross‐species selection of TIR‐binding motifs with 190 946 TIR‐derived peptides in a single binding assay (Scheme 1). Enriched phage pools from the fourth round of selection were analyzed using NGS after barcoding the peptide‐coding regions of the phage pools.
# Phage display screening was performed by coating two wells of a 96‐well plate (Maxisorp, Thermo Fisher Scientific) with 100 µL of 5 µg mL^−1 TIR domains overnight; then, the coated wells were blocked with 200 µL of blocking buffer (0.2% BSA in PBS) and set aside for 1 h at 4 °C with gentle shaking. Next, 100 µL of the phage library was added to the wells and incubated for 1 h at room temperature (RT; 20 – 22 °C) with gentle shaking. The plate was washed four times with PBS containing 0.5% Tween‐20; the bound phages were eluted by adding 100 µL of 100 mM HCl to each well. The elute was neutralized with 10 µL of 1.0 M Tris‐HCl (pH 11.0). E. coli TG1 cells were grown to the log phase (A600 = ≈0.6), and 1 mL of the culture was incubated with 100 µL of the eluted phages for 30 min at 37 °C, with shaking at 200 rpm. Next, 1 µL of M13KO7 helper phages was added, followed by incubation for 45 min at 37 °C, with shaking. Subsequently, the cells were transferred to 25 mL of 2× yeast extract tryptone/carbenicillin/kanamycin medium and incubated overnight at 37 °C with shaking at 200 rpm. The amplified phages were precipitated with 20% PEG‐8000/2.5 M NaCl to be used for the next round of selection.
# The naïve T‐Surf libraries in P8 and P3 and the enriched phage pools after four rounds were barcoded for NGS as previously described.^[ [59] ^] Briefly, 5 µL of the phage pool was used as a template for 20 cycles of a 50 µL PCR reaction using […] each of forward and reverse barcoded primers and PrimeSTAR Max DNA Polymerase. The PCR products were purified using Expin Gel SV (GeneAll). The NGS samples were quantified using qPCR, following the qPCR Quantification Protocol Guide (KAPA Library Quantification kits for Illumina Sequencing Platform), and qualified using the TapeStation High Sensitivity D1000 ScreenTape (Agilent Technologies). The indexed libraries were further sequenced by Macrogen (Seoul, Republic of Korea) using the NovaSeq platform (Illumina) with 100 bp paired‐end reads. The reads were demultiplexed by barcodes and filtered for an average Phred quality score of at least 30, followed by trimming the flanking consensus sequences using Cutadapt (version 2.3). Peptide sequence populations were analyzed according to the read counts.
# [1] = P3_MAL: rank by count after grouping
# [2] = P3_MAL: rank by count before grouping
# [3] = selection against MAL, rank by count after grouping
# [4] = selection against MAL, rank by count before grouping
# [5] = selection against MAL, rank after grouping
# [6] = selection against MAL, rank before grouping
# [7] = selection against MAL TIR, rank by count after grouping
# [8] = selection against MAL TIR, rank by count before grouping
# [9] = 4R selection against MAL, rank after grouping
# [10] = 4R selection against MAL, rank before grouping
# [11] = P8_MAL: rank by count after grouping
# [12] = P8_MAL: rank by count before grouping
# [13] = P3_MAL pool: P3 T-Surf phage library
# T1 sequence (P58753 79-221): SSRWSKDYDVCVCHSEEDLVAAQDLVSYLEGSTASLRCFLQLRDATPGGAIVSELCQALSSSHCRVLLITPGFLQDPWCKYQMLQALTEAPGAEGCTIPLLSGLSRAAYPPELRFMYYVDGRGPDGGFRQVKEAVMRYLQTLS
substance,measurement,setting,value
FMSHLYQGLKNRGIFTF,Rank (after),[1],113
same,Rank (before),[2],201
FMSHLYQGLLKGLIIT,P3_MAL Rank (after),[3],681
same,P3_MAL Rank (before),[4],1202
FMSHLYRYLVQRGV,P3_MAL Rank (after),[5],546
same,P3_MAL Rank (before),[6],1200
FTLAVQVRNLLVGAFI,P8_MAL Rank (after),[7],262
same,P8_MAL Rank (before),[8],1099
FTLSVHVRNWLAGAFI,P8_MAL Rank (after),[9],606
same,P8_MAL Rank (before),[10],1091
GCLYQAFARAGFKIFM,P3_MAL Rank (after),[3],707
same,P3_MAL Rank (before),[4],1752
GCYERLVSLILRDTKV,Rank (after),[11],121
same,Rank (before),[12],1571
GFFERLVRMILRDTKV,P8_MAL Rank (after),[7],263
same,P8_MAL Rank (before),[8],1567
GFLSHLRHHLQAKDH,Rank (after),[1],127
same,Rank (before),[2],275
GFLYQAFAREGLQIFM,Rank (after),[1],164
same,Rank (before),[2],1739
GFYERQVSLVLGDTKV,P8_MAL Rank (after),[7],281
same,P8_MAL Rank (before),[8],1569
GGFLSHLFDAFSVSR,P3_MAL Rank (after),[3],749
same,P3_MAL Rank (before),[4],1758
GLSWGPYEWWMGLYDA,P8_MAL Rank (after),[3],716
same,P8_MAL Rank (before),[4],1572
GPDTRRKFISFLYKEL,P3_MAL Rank (after),[3],683
same,P3_MAL Rank (before),[4],1767
GRYGELFMTETDVREG,Rank (after),[1],403
same,Rank (before),[2],1763
GSFREGLWRLLELSKK,Population,[13],0.00639%
GSIKWRDQHTVHPQSS,P3_MAL Rank (after),[9],589
same,P3_MAL Rank (before),[10],1776
GWFLNKLSQLILKKEK,Population,[13],0.03%
same,Rank (after),[1],100
same,Rank (before),[2],100
GWFREGLWRLLELSKK,P3_MAL Rank (after),[7],279
same,P3_MAL Rank (before),[8],1756
HFFGFN*KAFWAKPAX,Population,P8_MAL pool: P8 T-Surf phage library,0.00309%
HFFLDSTEKHSGRNQL,P8_MAL Rank (after),[7],277
same,P8_MAL Rank (before),[8],2392
HFFWFKLKSILGETSF,P8_MAL Rank (after),[5],542
same,P8_MAL Rank (before),[6],2394
HFFWIQLKAFWAKPA,Rank (after),[11],184
same,Rank (before),[12],992
HFFWIQLKNILGENSF,P8_MAL Rank (after),[9],610
same,P8_MAL Rank (before),[10],2417
HFFWVKLKSILGETSL,P8_MAL Rank (after),[9],592
same,P8_MAL Rank (before),[10],2396
HFSRIQLKSRLGETSF,Rank (after),[11],444
same,Rank (before),[12],2425
HFWWIPLKSILGETSF,P8_MAL Rank (after),[9],632
same,P8_MAL Rank (before),[10],2423
HFYWILLKSILGETRL,P8_MAL Rank (after),[9],618
same,P8_MAL Rank (before),[10],2426
HHKAAMAKRWRNMKN,Rank (after),[1],401
same,Rank (before),[2],2818
HHKGSYGEALAEDEER,P3_MAL Rank (after),[9],580
same,P3_MAL Rank (before),[10],2826
HHKGSYGEALHQFHSWV,P3_MAL Rank (after),[5],541
same,P3_MAL Rank (before),[6],2842
HHNGSYCEALAEHKER,P3_MAL Rank (after),[5],486
same,P3_MAL Rank (before),[6],2815
HHNSSYGEALAEHEKR,Rank (after),[1],167
same,Rank (before),[2],2817
HHTGSYGQALAEHEKR,P3_MAL Rank (after),[9],584
same,P3_MAL Rank (before),[10],2814
HLFCIQLKSILGETSF,P8_MAL Rank (after),[5],506
same,P8_MAL Rank (before),[6],2428
HLLDKLRSNGISPFID,Rank (after),[1],461
same,Rank (before),[2],2772
HLLKEFGKKLITAFKN,P3_MAL Rank (after),[9],646
same,P3_MAL Rank (before),[10],2779
HLLKIVLEKFASHRSS,P8_MAL Rank (after),[9],614
same,P8_MAL Rank (before),[10],2335
HLLKKPRNKRISPFIA,P3_MAL Rank (after),[3],692
same,P3_MAL Rank (before),[4],2803
HLLKWKEALHQFHSWV,Population,[13],0.00488%
HPKGSYREALAEHEKR,P3_MAL Rank (after),[5],503
same,P3_MAL Rank (before),[6],2809
HQAFTGHLHRYLVQRGV,P3_MAL Rank (after),[7],192
same,P3_MAL Rank (before),[8],979
HQAFWDRLWAKLKAPI,P8_MAL Rank (after),[5],546
same,P8_MAL Rank (before),[6],2337
HQAFWERLWAKMQAPI,P3_MAL Rank (after),[9],659
same,P3_MAL Rank (before),[10],2860
HQAFWKRPWAKLKPPT,Rank (after),[1],472
same,Rank (before),[2],2884
HQAFWNRLWAKLKPP,P3_MAL Rank (after),[3],755
same,P3_MAL Rank (before),[4],2873
HQALWALMWAKHQTPI,P3_MAL Rank (after),[9],623
same,P3_MAL Rank (before),[10],2894
HQARWNRPWAKLKPPT,P3_MAL Rank (after),[9],626
same,P3_MAL Rank (before),[10],2895
HQASWNRLWEQLKPRT,P3_MAL Rank (after),[5],505
same,P3_MAL Rank (before),[6],2891
HQKGSYGEAPAEHEKR,Rank (after),[1],397
same,Rank (before),[2],2901
HQSFWARTWAALIAPS,P3_MAL Rank (after),[3],724
same,P3_MAL Rank (before),[4],2849
HQTFWDRLCAKLKAPI,P3_MAL Rank (after),[3],705
same,P3_MAL Rank (before),[4],2898
HQWRNALTAAANLSGW,Population,[13],0.00902%
IFCISCCLAVRKPSI,P8_MAL Rank (after),[7],241
same,P8_MAL Rank (before),[8],2434
KCFWVTLLYALHRNPR,Rank (after),[1],465
same,Rank (before),[2],3483
KDPDNYKFAIHERDFP,P3_MAL Rank (after),[7],207
same,P3_MAL Rank (before),[8],3542
KELEKYQLAILERDFQ,P3_MAL Rank (after),[5],489
same,P3_MAL Rank (before),[6],3596
KELLHKWKLALTQTPN,P3_MAL Rank (after),[9],621
same,P3_MAL Rank (before),[10],3593
KERLHQWKLALTQAA,P3_MAL Rank (after),[5],526
same,P3_MAL Rank (before),[6],3601
KERLHQWKLALTQAANLS,P3_MAL Rank (after),[3],766
same,P3_MAL Rank (before),[4],3603
KERLHQWKLALTQAANLSGW,Population,[13],0.00376%
same,Rank (after),[1],111
same,Rank (before),[2],178
KERLHQWKLALTQAPI,P3_MAL Rank (after),[9],661
same,P3_MAL Rank (before),[10],3604
KERPFGAQRAEKWRA,P3_MAL Rank (after),[3],736
same,P3_MAL Rank (before),[4],3610
KERPFGAQRAEKWRTALT,Rank (after),[1],466
same,Rank (before),[2],3611
KEVDGWRDALTQVASL,P3_MAL Rank (after),[7],196
same,P3_MAL Rank (before),[8],3547
KEVEGWRDALAKVASP,P3_MAL Rank (after),[5],576
same,P3_MAL Rank (before),[6],3557
KEVEGWRDALPHRYEP,P3_MAL Rank (after),[7],191
same,P3_MAL Rank (before),[8],1095
KEVEGWRDALRKIANIF,Rank (after),[1],417
same,Rank (before),[2],3560
KEVEGWRDALSSIASRP,Rank (after),[1],163
same,Rank (before),[2],685
KEVEGWRDALTKAPI,P3_MAL Rank (after),[9],644
same,P3_MAL Rank (before),[10],3576
KEVEGWRDALTQAAN,P3_MAL Rank (after),[9],599
same,P3_MAL Rank (before),[10],3565
KEVEGWRQALEKAGKL,Rank (after),[1],118
same,Rank (before),[2],386
KGLTEIADLKGKKCDR,P3_MAL Rank (after),[5],529
same,P3_MAL Rank (before),[6],3531
KHCWDRLCYMVNDSSR,P3_MAL Rank (after),[3],721
same,P3_MAL Rank (before),[4],3468
KHSNNDQKWAETASRK,P3_MAL Rank (after),[3],765
same,P3_MAL Rank (before),[4],3469
KIILDTAARIWGWRQA,P3_MAL Rank (after),[7],227
same,P3_MAL Rank (before),[8],3704
KIWGWRDALSRNPH,P3_MAL Rank (after),[3],762
same,P3_MAL Rank (before),[4],3640
KLCWEKFKCFLPSLSR,Rank (after),[11],404
same,Rank (before),[12],2727
KLFQQWIELHLHQLHL,Rank (after),[11],436
same,Rank (before),[12],2724
KLFWAICIMRWCRRAF,Rank (after),[11],175
same,Rank (before),[12],1070
KLFWEKFKFFLPTPSR,P8_MAL Rank (after),[7],201
same,P8_MAL Rank (before),[8],2708
KLFWEKFKFFRPSLSC,P8_MAL Rank (after),[7],226
same,P8_MAL Rank (before),[8],2709
KLFWEKLKLFLPSLSR,P8_MAL Rank (after),[9],657
same,P8_MAL Rank (before),[10],2687
KLIQGGCLYRLLKIEQ,Rank (after),[11],421
same,Rank (before),[12],2752
